Measurements taken from patent US10392357B2, “Glucagon-like peptide 1 modulator and uses thereof” (Academia Sinica, priority 2015, dated 2019).

Tests used:
Assay type in all cases: cell-based
GLP-1R = molecular target: T1, GLP-1R (UniProt P01275+P32301); assay: cell-based; design: Activity % of compound 1 (potentiation of GLP-1 induced cAMP production): concentration or dose not given beside the values; conditions: for Activity % of compound 1 (potentiation of GLP-1 induced cAMP production): relative to compound 1 = 100; for effect on GLP-1R signaling (GLP-1 induced cAMP production): FIG. 1A to 1E
T1 construct: endogenous in cells; host or cells: RINm5F cells stably expressing the RG-cAMP BRET sensor
T1 sequence (P32301 22-463): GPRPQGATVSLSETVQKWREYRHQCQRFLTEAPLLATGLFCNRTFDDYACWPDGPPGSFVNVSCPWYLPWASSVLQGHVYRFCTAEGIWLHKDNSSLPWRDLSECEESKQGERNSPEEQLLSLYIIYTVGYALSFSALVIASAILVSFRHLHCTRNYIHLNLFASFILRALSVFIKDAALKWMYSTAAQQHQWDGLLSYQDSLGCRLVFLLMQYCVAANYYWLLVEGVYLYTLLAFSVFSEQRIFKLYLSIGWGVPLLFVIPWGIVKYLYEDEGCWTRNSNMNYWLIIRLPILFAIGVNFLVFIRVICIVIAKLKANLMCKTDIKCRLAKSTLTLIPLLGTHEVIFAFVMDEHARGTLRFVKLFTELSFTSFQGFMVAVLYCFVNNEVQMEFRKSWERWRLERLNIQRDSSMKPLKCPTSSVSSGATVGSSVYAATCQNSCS
T1 sequence (P01275 98-127 limits assumed): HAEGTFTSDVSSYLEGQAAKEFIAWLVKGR
Method: Next day, cells were washed twice with 0.1 ml phenol red-free MEM containing 5 mM HEPES, and incubated in the same medium for 1 h. The medium was replaced with 90 μL the same medium containing 1 mg/ml BSA and 5 μM DeepBlueC. The whole plate was immediately loaded onto a SpectraMax Paradigm Detection Platform equipped with a Dual-Color luminescence detection cartridge and SoftMax Pro 6.2.2 (Molecular Devices, Sunnyvale, Calif.) to obtain the background BRET signal based on the sequential integration of the luminescence detected at 370-450 and 500-530 nm over 60-150 s. Each well was then stimulated by adding 10 μl of 10× solutions of peptide and lipids and 1 mg/ml BSA in phenol red-free MEM containing 5 mM HEPES, and BRET signals were obtained immediately under identical settings. The BRET ratio is the ratio of light emitted between 90 and 300 s at 500-530 nm to that emitted at 370-450 nm. […] The dose-response curve, maximal response, and concentration of peptide needed to yield half-maximal response (EC50) were obtained by nonlinear regression to fit the data to the agonist versus response equation using Prism software 5.0 (GraphPad, San Diego). Unless specified, all cAMP response data are the means±S.E. from three independent experiments with triplicate assays.

H460 cells = assay: Cell viability test (PrestoBlue) in H460 cells; conditions: 72-h treatment, FIG. 5; for cytotoxicity: test concentration 0.78 to 100 μM
Method: Cytotoxicity of H460 cells to various compounds was assessed using PrestoBlue® reagent, which was modified by the reducing environment of the viable cell and turns from blue to red in color. In brief, 3,000 H460 cells were seeded with 0.1 ml of RPMI 1640 medium in each well of a 96-well plate and incubated at 37° C. for 24 h before compound treatment. After a 72-h compound treatment, PrestoBlue™ cell viability reagent (Invitrogen) was added to each well according to the manufacturer's protocol. The plates were further incubated in the dark at 37° C. in 5% CO2 for 10 min, and absorbance of all wells was read at both the 570- and 600-nm wavelengths using automatic enzyme-linked immunosorbent assay plate reader (Molecular Devices, Union City, Calif.). The raw data were normalized and corrected according to the manufacturer's protocol. All samples were tested in triplicate, and each test was repeated three times. Cell viability was calculated using the following formula: percent of 100×(average corrected values of compound treated cells)/(average corrected values of untreated cells).

RINm5F cells = assay: GLP-1-elicited insulin release from RINm5F cells; conditions: FIG. 4
GLP-1R-V2R chimeric = molecular target: T2, GLP-1R-V2R chimeric (Homo sapiens, UniProt P01275+P43220); assay: Receptor endocytosis assay in U2OS cells co-expressing GLP-1R-V2R and β-arrestin2:GFP
T2 construct: the first 440 amino acids of the GLP-1R (Met-1 to Thr-440); vasopressin V2 receptor C-terminal tail, last 29 amino acids, Ala-343 to Ser-371 (AVPR2); expressed in transfected cells; host or cells: U2OS osteosarcoma cells stably expressing beta-arrestin2:GFP (Norak Biosciences), transfected with pcDNA3-GLP-1R-V2R
T2 sequence (P43220 with tags, fused parts or gaps limits assumed): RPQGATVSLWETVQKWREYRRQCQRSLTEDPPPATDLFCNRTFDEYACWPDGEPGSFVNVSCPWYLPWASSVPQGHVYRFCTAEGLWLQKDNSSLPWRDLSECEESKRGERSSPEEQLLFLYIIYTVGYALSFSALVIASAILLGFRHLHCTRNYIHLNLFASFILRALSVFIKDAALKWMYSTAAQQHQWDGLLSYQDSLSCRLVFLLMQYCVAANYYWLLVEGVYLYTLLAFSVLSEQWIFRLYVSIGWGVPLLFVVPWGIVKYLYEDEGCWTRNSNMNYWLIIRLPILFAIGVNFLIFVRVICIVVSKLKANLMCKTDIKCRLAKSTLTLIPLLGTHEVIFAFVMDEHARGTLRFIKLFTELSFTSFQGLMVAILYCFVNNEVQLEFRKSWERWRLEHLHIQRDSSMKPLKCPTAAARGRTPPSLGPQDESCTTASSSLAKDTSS
T2 sequence (P01275 98-127 limits assumed, stated change not applied): as the sequence (P01275 98-127 limits assumed) above
Excerpt: U2OS osteosarcoma cell line stably expressing a β-arrestin2:GFP fusion protein was obtained from Norak Biosciences. The pcDNA3 GLP-1R-V2R chimeric construct contains the first 440 amino acids of the GLP-1R (Met-1 to Thr-440) fused to the last 29 amino acids of the vasopressin V2 receptor (Ala-343 to Ser-371) and separated by two alanine residues as linker. […]
Images were acquired on an XL model of the ImageXpress® Micro System (Molecular Devices, Sunnyvale, Calif.) and analyzed with MetaXpress High-Content Image Acquisition and Analysis Software (Molecular Devices, Sunnyvale, Calif.) using the granularity and variable grain analysis modules. […] The number of spots, total area covered by spots, average and integrated fluorescence intensity of the spots, and nuclear area and fluorescence intensity were logged into the database. Data from abnormal cells for which the values were above threshold (abnormal: average nuclear staining intensity <500; integrated fluorescence intensity of area covered by spots <150) were ruled out using Acuity Xpress, followed by selection of the measurement method, spot fluorescence integrated intensity to calculate the average number of spots per nucleus. […]

## CC/C=C/C/C=C/C/C=C/C/C=C/C/C=C/C/C=C/CCC(=O)NCC(=O)O [Docosahexaenoyl glycine]
GLP-1R
  Activity % of compound 1 (potentiation of GLP-1 induced cAMP production): 15%

## CCCCC/C=C\C/C=C\CCCCCCCC(=O)OC [linoleic acid methyl ester]
GLP-1R
  Activity % of compound 1 (potentiation of GLP-1 induced cAMP production): 30%

## C[C@@H]([C@H](C)O)[C@H](N)C(=O)O [4-hydroxyisoleucine]
GLP-1R
  Activity % of compound 1 (potentiation of GLP-1 induced cAMP production): <10%

## CCCCC/C=C\C=C\CCCCCCCCC(=O)O [10(E),12(Z)-conjugated linoleic acid]
GLP-1R
  Activity % of compound 1 (potentiation of GLP-1 induced cAMP production): 30%

## CCCCCC/C=C/C=C\CCCCCCCC(=O)O [9(Z),11(E)-conjugated linoleic acid]
GLP-1R
  Activity % of compound 1 (potentiation of GLP-1 induced cAMP production): 25%

## CC/C=C\C/C=C\C/C=C\CCCCCCCC(=O)N[C@@H](Cc1ccc(O)cc1)C(=O)O [N-(α-linolenoyl) tyrosine]
GLP-1R
  Activity % of compound 1 (potentiation of GLP-1 induced cAMP production): 70%

## CCCCC/C=C\C/C=C\CCCCCCCC(=O)NCCO [Linoleoyl ethanolamide]
GLP-1R
  Activity % of compound 1 (potentiation of GLP-1 induced cAMP production): 90%
GLP-1R; listed as linoleoyl ethanolamide
  Activity % of compound 1 (potentiation of GLP-1 induced cAMP production): about 90%

## CCCCC/C=C\C/C=C\CCCCCCCC(=O)OC [Methyl cis,cis-9,12-octadecadienoate]
GLP-1R
  Activity % of compound 1 (potentiation of GLP-1 induced cAMP production): 15%

## CCCCCC/C=C/CCCCCCCCCC(=O)O [11-trans-octadecenoic acid]
GLP-1R
  Activity % of compound 1 (potentiation of GLP-1 induced cAMP production): 10%

## CCCCCCCC/C=C\CCCCCCCC(=O)NCCO [oleoylethanolamide]
H460 cells
  cytotoxicity: did not exhibit detectable cytotoxicity

## CC/C=C\C/C=C\C/C=C\C/C=C\C/C=C\CCCC(=O)NCCc1c[nH]c2ccc(O)cc12 [Eicosapentaenoyl serotonin]
GLP-1R
  Activity % of compound 1 (potentiation of GLP-1 induced cAMP production): 20%

## GLP-1(7-36)-amide
RINm5F cells; 2 nM GLP-1 alone
  insulin release from RINm5F cells: stimulated a low level of insulin release

## CCCCCC/C=C/C=C/CCCCCCCC(=O)O [9(E),11(E)-conjugated linoleic acid]
GLP-1R
  Activity % of compound 1 (potentiation of GLP-1 induced cAMP production): 30%

## CC/C=C\C/C=C\C/C=C\C/C=C\C/C=C\CCCC(=O)NCCO [Eicosapentaenoyl ethanolamide]
GLP-1R
  Activity % of compound 1 (potentiation of GLP-1 induced cAMP production): 90%
GLP-1R; listed as eicosanpentaenoyl ethanolamide
  Activity % of compound 1 (potentiation of GLP-1 induced cAMP production): about 90%

## CCCCC/C=C/C/C=C/CCCCCCCC(=O)OCC(O)CO (stereo not shown) [1-monolinolein]
GLP-1R
  Activity % of compound 1 (potentiation of GLP-1 induced cAMP production): 80%

## CC/C=C\C/C=C\C/C=C\CCCCCCCC(=O)O [α-linolenic acid]
GLP-1R
  Activity % of compound 1 (potentiation of GLP-1 induced cAMP production): 15%

## CC/C=C\C/C=C\C/C=C\C/C=C\C/C=C\C/C=C\CCC(=O)O [Docosahexaenoic acid]
GLP-1R
  Activity % of compound 1 (potentiation of GLP-1 induced cAMP production): 60%

## CCCCCCCC/C=C\CCCCCCCC(=O)O [Oleic acid]
GLP-1R
  Activity % of compound 1 (potentiation of GLP-1 induced cAMP production): 35%

## CC/C=C\C/C=C\C/C=C\C/C=C\C/C=C\C/C=C\CCC(=O)NCCO [Docosahexaenoyl ethanolamide]
GLP-1R
  Activity % of compound 1 (potentiation of GLP-1 induced cAMP production): 20%

## CCCCC/C=C/C/C=C/CCCCCCCC(=O)O [Linoelaidic acid]
GLP-1R
  Activity % of compound 1 (potentiation of GLP-1 induced cAMP production): 30%

## CCC=CCC=CCC=CCC=CCC=CCC=CCCC(=O)N[C@H]1C(=O)O[C@@H](C)[C@@H]1C [Compound 12]
GLP-1R; RINm5F cells
  effect on GLP-1R signaling (GLP-1 induced cAMP production): enhance the GLP-1R signaling

## CCCCC/C=C\C/C=C\C/C=C\CCCCC(=O)OC [Methyl γ-linolenate]
GLP-1R
  Activity % of compound 1 (potentiation of GLP-1 induced cAMP production): 20%

## CC/C=C\C/C=C\C/C=C\CCCCCCCC(=O)OC [linolenic acid methyl ester]
GLP-1R
  Activity % of compound 1 (potentiation of GLP-1 induced cAMP production): 15%

## CCCCC/C=C\C/C=C\C/C=C\CCCCC(=O)OC [γ-linoleic acid methyl ester]
GLP-1R
  Activity % of compound 1 (potentiation of GLP-1 induced cAMP production): 25%

## CC/C=C\C/C=C\C/C=C\C/C=C\C/C=C\CCCC(=O)O [Eicosapentaenoic acid]
GLP-1R
  Activity % of compound 1 (potentiation of GLP-1 induced cAMP production): 60%

## CCCCC/C=C/C/C=C/CCCCCCCC(=O)OC [Methyl linolelaidate]
GLP-1R
  Activity % of compound 1 (potentiation of GLP-1 induced cAMP production): 30%

## Cis-octadecenoic acid
GLP-1R
  Activity % of compound 1 (potentiation of GLP-1 induced cAMP production): 25%

## CCCCC/C=C\C/C=C\CCCCCCCC(=O)NC1C(=O)OC(C)C1C (stereo not shown) [Compound 1, (9Z,12Z)-N-(4,5-Dimethyl-2-oxotetrahydrofuran-3-yl)octadeca-9,12-dienamide]
GLP-1R; RINm5F cells
  relative potency among the compounds of formula (I) tested in example 2: most potency
  effect on GLP-1R signaling (GLP-1 induced cAMP production): enhance the GLP-1R signaling
GLP-1R; compound 1 increased from 0.8 μM to 26 μM, FIG. 2 panel A
  shift of the GLP-1 dose-response curve (cAMP production) to the left: > 10 fold
GLP-1R; dose dependent and saturable, FIG. 2 panel B
  EC50: 3.7 µM
GLP-1R
  Activity % of compound 1 (potentiation of GLP-1 induced cAMP production): 100%
GLP-1R-V2R chimeric
  EC50: 0.87 µM
RINm5F cells; 7.7 μM compound added to 2 nM GLP-1
  effect on insulin release elicited by GLP-1: significantly enhanced
RINm5F cells; compound alone, without GLP-1
  insulin release by compound alone: did not trigger any insulin release
H460 cells
  cytotoxicity: did not exhibit detectable cytotoxicity

## N.N.[Cl][Pt][Cl] [cisplatin]
H460 cells
  IC50: 6.7 µM

## CC/C=C\C/C=C\C/C=C\C/C=C\C/C=C\C/C=C\CCC(=O)NCCc1c[nH]c2ccc(O)cc12 [Docosahexaenoyl serotonin]
GLP-1R
  Activity % of compound 1 (potentiation of GLP-1 induced cAMP production): 15%

## CCCCC/C=C\C/C=C\CCCCCCCC(=O)OCC [Ethyl linoleate]
GLP-1R
  Activity % of compound 1 (potentiation of GLP-1 induced cAMP production): 60%

## CCCCCCCC/C=C\CCCCCCCC(=O)OC(CO)CO [2-oleoylglycerol]
H460 cells
  cytotoxicity: did not exhibit detectable cytotoxicity

## CCCCC/C=C\C/C=C\CCCCCCCC(=O)NCC(=O)O [Linoleoyl glycine]
GLP-1R
  Activity % of compound 1 (potentiation of GLP-1 induced cAMP production): 80%
